Measurements published in patent publication US8309768B2, “FTY720-derived anticancer agents” (The Ohio State University Research Foundation, priority 2010, dated 2012).

What was measured:
CLL cells = experiment: Western blot analysis in CLL cells (PARP, caspase 3, caspase 9); format: cell-based
From the text: Western blot analysis as carried out to further observe the effects of OSU-2S in CLL cells. […] OSU-2S in CLL activates caspase, as evidenced by cleavage of poly (ADP-ribose) polymerase (PARP). Jurkat cell with or without UV irradiation were included as controls. […] OSU-2S was also shown to activate caspase 3 in CLL cells. […] Finally, OSU-2S activates caspase 9 in CLL.

[1] = test system: PTEN, p53, Mcl-1 in Huh7 cells; experiment: Western blot of signaling markers in drug-treated Huh7 cells; format: cell-based; conditions: 24 h
Procedure: Immunoblotting. Immunoblotting of biomarkers in cell lysates and tumor tissue homogenates was carried out according to a published procedure. Hung et al., Cancer Res., 68, 1204-1212 (2008).

[2] = target: T1, PP2A (Serine/Threonine Phosphatase 2A) (Homo sapiens, UniProt P67775); experiment: PP2A functional enzymatic assay (malachite green) in primary CLL cells; format: cell-based; conditions: 24 hrs, OSU-2S 8 μM, untreated about 0.07
T1 construct: endogenous in cells; host or cells: primary CLL cells; Ramos cells
Procedure: The ability of OSU-2S to induce PP2A (Serine/Threonine Phosphatase 2A) activity in primary CLL cells was measured at 24 hrs by a functional enzymatic assay. Lysates made from OSU-2S 8 μM treated cells are used to immunoprecipitate PP2Ac which was then used as an enzyme to cleave the specific phosphor-peptide substrate in the functional assay. The cleaved free phosphates were measured by adding malachite green detection solutions and measuring the absorbance at A650 nm. Ramos cells were also included, and FTY720 was used as the control.

[3] = test system: lymphocytes in peripheral blood; experiment: In vivo evaluation of T-lymphocyte homing; conditions: CD2F1 mice, i.p., 6 h
Procedure: In vivo evaluation of T-lymphocyte homing. […] Six hours later, animals were sacrificed, and peripheral blood mononuclear cells were prepared as described. Dragun et al., Kidney Int 65, 1076-1083 (2004). Cells were stained with FITC-labeled rat anti-mouse CD3 molecular complex and PE-labeled rat anti-mouse CD45RA (4° C., in darkness, 30 min), and analyzed by flow cytometry.

human recombinant SphK2 = target: T2, human recombinant SphK2 (Homo sapiens, UniProt Q9NRA0); experiment: Phosphorylation of FTY720 and OSU-2S by SphK2 (radiometric, TLC); format: biochemical; conditions: 5 μM compound, [γ-32P]-ATP, 37° C., 60 min, TLC/autoradiography
T2 construct: purchased Cayman
T2 sequence (Q9NRA0 1-654): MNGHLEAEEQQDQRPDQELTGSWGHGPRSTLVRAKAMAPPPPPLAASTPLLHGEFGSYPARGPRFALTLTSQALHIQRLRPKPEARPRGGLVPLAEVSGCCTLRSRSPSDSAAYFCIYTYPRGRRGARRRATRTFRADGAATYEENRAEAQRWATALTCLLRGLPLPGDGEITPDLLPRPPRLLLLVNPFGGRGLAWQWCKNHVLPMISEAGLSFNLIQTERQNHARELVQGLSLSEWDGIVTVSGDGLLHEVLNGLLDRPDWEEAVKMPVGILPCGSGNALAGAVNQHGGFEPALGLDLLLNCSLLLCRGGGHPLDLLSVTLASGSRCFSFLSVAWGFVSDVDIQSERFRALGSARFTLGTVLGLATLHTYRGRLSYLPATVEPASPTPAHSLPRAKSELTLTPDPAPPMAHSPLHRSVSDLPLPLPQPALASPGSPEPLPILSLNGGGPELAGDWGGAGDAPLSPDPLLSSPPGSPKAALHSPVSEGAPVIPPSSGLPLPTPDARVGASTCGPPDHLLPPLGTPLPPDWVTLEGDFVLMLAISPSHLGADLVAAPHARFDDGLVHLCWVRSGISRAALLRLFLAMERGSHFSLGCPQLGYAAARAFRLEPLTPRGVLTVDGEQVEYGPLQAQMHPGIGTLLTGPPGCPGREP
Procedure: Phosphorylation of FTY720 and OSU-2S by SphK2. Analysis of SphK2-mediated phosphorylation was performed as reported with modifications. Prieschl […] J Exp Med, 190, 1-8 (1999). Briefly, 5 μM FTY720 or OSU-2S was incubated with 0.75 μg/ml human recombinant SphK2 (Cayman), 5 μCi [γ-^32P]-ATP, and 0.5 mM cold ATP at 37° C. for 60 min. The reaction products were separated by silica-gel thin layer chromatography (TLC) and visualized by autoradiography.

[4] = test system: SphK2 siRNA-transfected Huh7 cells; experiment: Cell viability after siRNA-mediated knockdown of SphK2; format: cell-based; conditions: SphK2 siRNA vs scrambled
Procedure: Cell viability assay. Cell viability was assessed by 3-(4,5-dimethylthiazol-2-yl)-2,5-diphenyl-2H-tetrazolium bromide (MTT) assays in six replicates. Cells were seeded (4,000 cells/well; 96-well plate) for 24 h and treated with test agents in 5% FBS-supplemented DMEM. After treatment, cells were incubated in medium containing 0.5 mg/ml MTT (37° C., 2 h). Reduced MTT was dissolved in DMSO (200 μL/well) and absorbances measured at 570 nm.
Small interfering (si)RNA- or short hairpin (sh)RNA-mediated knockdown. PLC5 and Huh7 cells were transfected with the following siRNA duplexes or shRNA plasmids according to the manufacturer's protocol for the knockdown of target genes: siRNA: glutathione S-transferase (GST)-π and sphingosine kinase 2 (SphK2); shRNA constructs: pKD-PKCδ-v2. Stable clones were isolated from Huh7 cells transfected with shRNA plasmids were further subjected to stable clone isolation by geneticin. Immunoblotting was performed to confirm the knockdowns.

primary CLL cells = experiment: Cytotoxicity in primary CLL cells (Annexin V / propidium iodide flow cytometry); format: cell-based
Procedure: Antitumor and other effects of OSU-2S were also evaluated in Chronic Lymphoid Leukemia cells. OSU-2S cytotoxicity in primary CLL cells is measured at 24 hrs by staining for Annexin V and Propidium Iodide using Flow cytometer. The number of live cells (stained negative for both the stains) were normalized to untreated control. Fludarabine metabolite (2-Fara) was used as a control.
The effect of OSU-2S was evaluated in 3 different CLL cell lines (WROTH<THOU, and RAHUE) over a 24 hour period, as shown in FIG. 9. Time dependent OSU-2S cytotoxicity in primary CLL cells was measured by treating the cells with OSU-2S (8 μM) for indicated period of time and washed and cultured in the fresh media for 24 hr. The number of live cells stained negative for Annexin V and Propidium Iodide were measured at 24 hrs by using Flowcytometer and normalized to untreated control.
CD37 activation and OSU-2S produced enhanced cytotoxicity in CLL cells, as detected by flow cytometer at 24 hr. in CLL cells treated with CD37 antibody and cross linker or OSU-2S 8 μM or with both are stained for Annexin V and propidium iodide at 24 hr.

T1 sequence (P67775 whole entry): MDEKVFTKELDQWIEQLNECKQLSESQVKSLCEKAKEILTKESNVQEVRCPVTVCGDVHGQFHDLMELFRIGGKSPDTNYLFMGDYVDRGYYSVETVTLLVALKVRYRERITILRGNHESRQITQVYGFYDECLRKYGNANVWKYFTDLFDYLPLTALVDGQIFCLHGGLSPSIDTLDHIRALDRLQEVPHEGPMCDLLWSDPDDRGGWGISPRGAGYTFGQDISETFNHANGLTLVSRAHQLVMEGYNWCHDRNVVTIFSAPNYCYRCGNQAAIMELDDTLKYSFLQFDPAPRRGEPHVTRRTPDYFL

CCC[C@@](N)(CO)CCc1ccc(OCCCCCC(C)C)cc1 [OSU-2S, (S)-2-amino-2-(4-[(6-methylheptyl)-oxy]phenethyl)pentan-1-ol]
caspase 3 activation (CLL cells; 24 and 48 hours, products at about 16-18 kD): caspase 3 cleaved products | PARP cleavage (CLL cells; 24 and 48 hours, vs untreated): higher levels of PARP | caspase 9 activation (CLL cells; products at about 30-34 kD): caspase 9 cleaved products | effect on expression levels of PTEN, p53, or Mcl-1 [1]: neither OSU-2S nor FTY720 had an appreciable effect | PP2A activity, absorbance at A650 nm [2]: about 0.20 | effect on number of T lymphocytes in peripheral blood ([3]; 5 mg/kg): modest decrease | effect on number of T lymphocytes in peripheral blood ([3]; 1 and 2 mg/kg): no appreciable effect | changes in circulating B lymphocytes [3]: no comparable changes | phosphorylation by recombinant SphK2 (human recombinant SphK2): not phosphorylated | effect of SphK2 knockdown on antiproliferative activity (sensitizing effect) [4]: not observed | time dependent cytotoxicity (primary CLL cells; 8 μM for indicated time, washed, cultured 24 hr, 3 CLL cell lines): decreased number live cells over time | live cells (negative for Annexin V and propidium iodide) (primary CLL cells; CLL cells, 24 hr, OSU-2S 8 μM and/or CD37 antibody and cross linker): about 30% | growth (live cells normalized to untreated control) (primary CLL cells; primary CLL cells, 24 hrs, OSU-2S at 8 μM): about 30%
